Publication PMC7614687, “Modulation of the substrate specificity of the kinase PDK1 by distinct conformations of the full-length protein*” (Science signaling, 2023)

Legend:
GST-PDK1_1-556 = biological target: T1, GST-PDK1_1-556 (Homo sapiens, UniProt O15530); test: AlphaScreen GST-PDK1_1-556 / biotin-PIFtide interaction; assay type: binding
T1 construct: made in house; host or cells: HEK293 cells (transient transfection of pEBG2T); peptide synthesized by Pepscan
T1 sequence (O15530 1-556): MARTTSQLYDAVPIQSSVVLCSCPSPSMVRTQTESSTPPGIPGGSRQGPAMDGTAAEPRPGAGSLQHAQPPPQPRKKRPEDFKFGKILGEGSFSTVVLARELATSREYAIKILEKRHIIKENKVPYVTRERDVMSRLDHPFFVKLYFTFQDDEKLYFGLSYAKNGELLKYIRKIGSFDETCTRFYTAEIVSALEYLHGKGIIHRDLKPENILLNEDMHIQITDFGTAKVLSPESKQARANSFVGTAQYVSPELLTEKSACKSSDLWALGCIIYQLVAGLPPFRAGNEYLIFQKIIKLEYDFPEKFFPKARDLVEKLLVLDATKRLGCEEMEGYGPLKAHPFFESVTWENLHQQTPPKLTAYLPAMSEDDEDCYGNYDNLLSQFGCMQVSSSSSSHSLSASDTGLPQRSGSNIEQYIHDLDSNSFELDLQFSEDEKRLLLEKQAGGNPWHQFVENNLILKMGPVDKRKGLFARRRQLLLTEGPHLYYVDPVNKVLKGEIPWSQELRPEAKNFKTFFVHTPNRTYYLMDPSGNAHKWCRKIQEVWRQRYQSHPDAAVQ
Protocol: The AlphaScreen® assay was performed following the general guidelines from the manufacturer (Perkin Elmer) ([29]). In short, the assay was performed in a final volume of 25 μl in white 384-well microtiter plates (Greiner) in a standard buffer containing 50 mM Tris-HCl (pH 7.4), 100 mM NaCl, 2 mM DTT, 0.01% (v/v) Tween-20 and 0.1% (w/v) BSA, with the addition of 5 μl of beads (anti-GST coated acceptor beads and streptavidin-coated donor beads; nickel chelate-coated acceptor beads and streptavidin-coated donor beads; or nickel chelate-coated acceptor beads and GSH-coated donor beads, 20 μg/ml final concentrations for each bead type). AlphaScreen assays for His-tagged proteins and GST-fusion proteins were performed using nickel chelate-coated acceptor beads and GSH-coated donor beads; alphascreen assays for His-tagged proteins and biotinylated molecules were performed using nickel chelate-coated acceptor beads and streptavidin-coated donor beads; alphascreen assays for GST-fusion proteins and biotinylated molecules were performed using anti-GST coated acceptor beads and streptavidin-coated donor beads (Perkin Elmer).
The interaction between GST-PDK1_1-556 and biotin-PIFtide was performed as described previously ([29], [32]) in the standard buffer, but the bead concentration was lowered to 15 μg/ml.

PDK1_1-556 = biological target: T2, PDK1_1-556 (Homo sapiens, UniProt O15530); test: PDK1-mediated activation/phosphorylation of Akt and SGK in vitro (cascade format, Western blot); assay type: biochemical; conditions: absence of PIP3, HYG8 1 μM
T2 construct: effect of HYG8 on the thermal stability (ΔTm) of PDK1_1-556 (H) and PDK1_50-359 (I); His (N); made in house; host or cells: Sf9 insect cells (baculovirus)
T2 sequence (O15530 1-556): T1 sequence (O15530 1-556)
Protocol: PDK1 activity was also assessed in a cascade format that measures the ability of PDK1 to activate its substrates GST-ΔN-SGK [S422D], GST-Akt [S473D] and GST-Akt ΔPH [S473D], as previously performed ([24], [28]). SGK and Akt proteins mutated at the HM phosphorylation site to Asp can be activated by phosphorylation at the activation loop by PDK1. In brief, we preincubated SGK or Akt (0.5 μg) with 10 ng or 100 ng of PDK1 at room temperature (22°C) in a buffer containing 50 mM Tris pH 7.5, 0.05 mg/ml BSA, 0.1% β-mercaptoethanol, 10 mM MgCl2, 100 μM ATP (20 μl). We measured the activity of SGK or Akt by adding 30 μl buffer containing the polypeptide substrate KK-Crosstide ([…]; 100 μM) and [γ^32P]ATP (100 μM). […]
PDK1 activity was also measured by incubating PDK1 with protein kinase substrates and measuring their phosphorylation by Western blot using phospho-specific antibodies to the activation loop phosphorylation site, essentially as previously performed ([24]), with the modification that the secondary antibodies were fluorescent for improved quantification. […] The basal phosphorylation of substrates was determined in the absence of PDK1, while “maximal” phosphorylation corresponds to the phosphorylation of substrates with excess PDK1 (10 nM PDK1 for Akt/PKB substrates and 1 nM PDK1 for SGK). […] Fluorescent signals were measured using Odyssey Fc (Licor). […]

EC50 (GST-PDK1_1-556; approximate, read-out: EC50, increase of GST-PDK1_1-556 binding to PIFtide): ~2.4 nM | fold increase of binding of GST-PDK1_1-556 to PIFtide (GST-PDK1_1-556; different experiments): 3-4 fold | activation of Akt and Akt ΔPH by PDK1 (PDK1_1-556): selectively inhibited | activation of SGK by PDK1 (PDK1_1-556): did not inhibit
SMILES: O=C(O[C@H]1[C@@H](OP(=O)(O)O)[C@H](OP(=O)(O)O)[C@@H](OP(=O)(O)O)[C@H](OP(=O)(O)O)[C@H]1OP(=O)(O)O)c1ccccc1 [HYG8, 2-O-benzoyl-IP5]
